Reference: patent publication US10174013B2, “Benzimidazole derivatives as kinase inhibitors” (SELVITA S.A., priority 2012, dated 2019)
Counter-ions that a name gives are not always drawn. Like-named read-outs stand apart in the source and are kept apart here.

Columns and labels:
HEL92 cells = experiment: Growth inhibition, MTS assay, HEL92; type: cell-based, Human; conditions: MTS cell viability, read-out: HEL92 ED50
FLT3wt = FLT3wt (Homo sapiens (Human), UniProt P36888); experiment: ADP-Glo Kinase Assay, Flt3 wt; type: biochemical; conditions: 1 μM compound; for inhibition at 1 µM: read-out: Flt3wt % INH (1 μM)
Summary of the method: (§1)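 Compounds were diluted in assay buffer to 1000 nM and incubated with kinase, substrate and ATP at apparent Km. Remaining ATP was depleted, ADP converted to ATP and detected by luciferase; percent inhibition came from normalized luminescence.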

CDK2/E = CDK2/E (Homo sapiens (Human), UniProt P24941); experiment: ADP-Glo Kinase Assay, CDK2/E; type: biochemical; conditions: 1 μM compound; for inhibition at 1 µM: read-out: CDK2/E % INH (1 μM)
Summary of the method: as §1

SW-480 cells = experiment: Growth inhibition, MTS assay, SW-480; type: cell-based, Human; conditions: 72 hours, MTS cell viability, read-out: SW-480 ED50
Text: The following cell lines, were obtained and used in tests as outlined below: • Human myelomonocytic, biphenotypic leukemia MV4-11 cells (harboring a Flt3-ITD mutation); • Human Acute Myeloid Leukemia MOLM16 cells; • Human Acute Myeloid Leukemia MOLM13 cells (harboring a Flt3-ITD mutation); • Human Myeloid Leukemia KG-1 cells; • Human erythroleukemia HEL92 cells; • Human mantle cell lymphoma Jeko-1 cells; • Human hepatocellular carcinoma HepG2 cells; and • Human colon adenocarcinoma SW-480 cells.
The assays were carried out according to the following protocol, which is described as an example for the MV4-11 cells:
Ten thousand MV4-11 cells were inoculated into each well of a 96-well microplate (manufactured by Corning Corp.) using Iscove's MDM medium (culture medium) containing 10% fetal calf serum (FCS). The same day, a dimethyl sulfoxide (DMSO) solution of each test compound prepared in a concentration of 10 mmol/L was further diluted with DMSO to the desired concentrations (0.1, 0.5, 1, 2.5, 5 and 10 micromol/L), and the diluted solution was added to each well. The individual wells were further cultured in 5% carbon dioxide at 37° C. for 72 hours. […] Briefly, 10 μl MTS (3-(4,5-Dimethyl-2-thiazolyl)-5-(carboxymethoxyphenyl)-2-(4-sulfophenyl)-2H-tetrazolium was added to each well, and culturing was performed in 5% carbon dioxide at 37° C. for 2 hours. After this incubation and using a microplate spectrophotometer (Synergy 2 multi-mode microplate reader (BioTek)), the absorbance of each well was measured at 490 nm. The value for cells not incubated with a test compound was designated as 100%. By comparing these values with the absorbance difference obtained at the well in which each test compound was added, the cell viability (% viability) after treatment with the test compound was calculated.

HepG2 cells = experiment: Growth inhibition, MTS assay, HepG2; type: cell-based, Human; conditions: MTS cell viability, read-out: HepG2 ED50
Pim-1 = Pim-1 (Homo sapiens (Human), UniProt P11309); experiment: ADP-Glo Kinase Assay, Pim-1; type: biochemical; conditions: 1 μM compound; for inhibition at 1 µM: read-out: Pim-1 % INH (1 μM)
Summary of the method: as §1

DYRK1 = DYRK1 (Homo sapiens (Human), UniProt Q13627); experiment: ADP-Glo Kinase Assay, DYRK1; type: biochemical; conditions: 1 μM compound; for inhibition at 1 µM: read-out: DYRK1A % INH (1 μM)
Summary of the method: as §1

MV4-11 cells = experiment: Growth inhibition, MTS assay, MV4-11; type: cell-based, Human; conditions: MTS cell viability, read-out: MV4-11 ED50
Pim-3 = Pim-3 (Homo sapiens (Human), UniProt Q86V86); experiment: ADP-Glo Kinase Assay, Pim-3; type: biochemical; conditions: 1 μM compound; for inhibition at 1 µM: read-out: Pim-3 % INH (1 μM)
Protocol: (§2) Compounds of the present invention were tested for their inhibitory activity against Pim-1, Pim-2, Pim-3, Flt3 wt, Flt3 ITD, CDK2/E and DYRK1. The testing of the compounds was carried out using the ADP-Glo™ Kinase Assay from Promega Corporation (Madison, Wis., USA).
(§3) The ADP-Glo™ Kinase Assay is a luminescent ADP detection assay to measure kinase activity by quantifying the amount of ADP produced during a kinase reaction. The kinase assay is performed in kinase assay buffer (5 mM MOPS, pH 7.5, 5 mM MgCl2, 0.4 mM EDTA, 1.5 mM DTT). Test samples initially dissolved in DMSO at 10 mM were diluted with the assay buffer to 1000 nM. A 30 μL volume/well of a mixture of substrates containing ATP (final ATP concentration in each kinase assay was equal to its apparent ATP Km).
(§4) The assay was performed in two steps: first, after the kinase reaction, an equal volume of ADP-Glo™ Reagent was added to terminate the kinase reaction and deplete the remaining ATP. Second, the Kinase Detection Reagent was added to simultaneously convert ADP to ATP and allowed the newly synthesized ATP to be measured using a luciferase/luciferin reaction. The luminescent signal generated was proportional to the ADP concentration produced and was correlated with kinase activity. A microplate spectrophotometer (Synergy 2 multi-mode microplate reader [BioTek]) was used for detecting the luminescence. The data was normalized and the percent of inhibition was obtained according to the following equation: […]

Pim-2 = Pim-2 (Homo sapiens (Human), UniProt Q9P1W9); experiment: ADP-Glo Kinase Assay, Pim-2; type: biochemical; conditions: 1 μM compound; for inhibition at 1 µM: read-out: Pim-2 % INH (1 μM)
Protocol: as §2, §3, §4

MV4-11 xenograft = MV4-11 xenograft in immunocompromised mice; type: in vivo
Text: Several compounds of the present invention have been studied in a xenograft in mice, an in vivo tumor transplantation model used to investigate the factors involved in malignant transformation, invasion and metastasis, as well as to examine response to therapy. For the purpose of acceptance of donor leukemic cells (MV4-11 or MOLM16 cells), immunocompromised mice were used, namely particularly severely compromised immunodeficient mice (NOD/scid, SCID/beige). When tumors developed size of approx. 50-200 mm^3, the compounds as indicated below in Tables 3 and 3a were administered orally every day for 2-3 weeks, in once a day (QD) or twice a day (BID) schedule. During the course of the experiment, the mice were monitored and the following two parameters were measured: the tumor growth inhibition (TGI) factor as a measure of therapeutic efficacy and the body weight change (ΔBW) factor as a measure of possible compound toxicity. The results are depicted in Tables 3 and 3a.
Next, compound 26A was evaluated in a xenograft study of acute myeloid leukemia (MV-4-11), alone or in a combinational treatment with Cytarabine in vivo (Table 3b; FIG. 6). Compound 26A was tested in two doses (50 and 25 mg/kg) and administered twice a day (BID); Cytarabine was administered at dose of 50 mg/kg three times in a week (TIW). During 15 days of compound administration dose-dependent anti-cancer activity of compound 26A (administered alone) was shown. Tumor growth inhibition reached −82% and −77%, respectively.

[1] = MV4-11 xenograft, oral, 150 mg/Kg QD
[2] = MV-4-11 xenograft, Cytarabine 50 mg/Kg TIW

Chain of Pim-1 (P11309 whole entry): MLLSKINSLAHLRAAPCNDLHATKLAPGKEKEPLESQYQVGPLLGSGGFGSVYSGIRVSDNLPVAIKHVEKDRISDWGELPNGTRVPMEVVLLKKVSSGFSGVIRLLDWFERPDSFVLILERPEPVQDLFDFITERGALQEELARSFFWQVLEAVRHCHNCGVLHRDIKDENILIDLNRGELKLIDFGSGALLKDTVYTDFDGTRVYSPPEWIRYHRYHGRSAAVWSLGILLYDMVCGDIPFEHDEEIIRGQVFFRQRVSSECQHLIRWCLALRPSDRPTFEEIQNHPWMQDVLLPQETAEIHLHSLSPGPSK
Chain of Pim-2 (Q9P1W9 whole entry): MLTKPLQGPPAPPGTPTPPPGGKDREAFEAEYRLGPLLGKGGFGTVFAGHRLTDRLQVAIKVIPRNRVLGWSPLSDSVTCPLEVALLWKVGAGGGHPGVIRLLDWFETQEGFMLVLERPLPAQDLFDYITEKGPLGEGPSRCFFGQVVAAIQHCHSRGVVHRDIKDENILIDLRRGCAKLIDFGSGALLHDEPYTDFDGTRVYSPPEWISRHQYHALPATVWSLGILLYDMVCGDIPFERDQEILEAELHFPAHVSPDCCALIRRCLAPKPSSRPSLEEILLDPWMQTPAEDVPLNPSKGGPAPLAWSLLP
Chain of FLT3wt (P36888 27-993): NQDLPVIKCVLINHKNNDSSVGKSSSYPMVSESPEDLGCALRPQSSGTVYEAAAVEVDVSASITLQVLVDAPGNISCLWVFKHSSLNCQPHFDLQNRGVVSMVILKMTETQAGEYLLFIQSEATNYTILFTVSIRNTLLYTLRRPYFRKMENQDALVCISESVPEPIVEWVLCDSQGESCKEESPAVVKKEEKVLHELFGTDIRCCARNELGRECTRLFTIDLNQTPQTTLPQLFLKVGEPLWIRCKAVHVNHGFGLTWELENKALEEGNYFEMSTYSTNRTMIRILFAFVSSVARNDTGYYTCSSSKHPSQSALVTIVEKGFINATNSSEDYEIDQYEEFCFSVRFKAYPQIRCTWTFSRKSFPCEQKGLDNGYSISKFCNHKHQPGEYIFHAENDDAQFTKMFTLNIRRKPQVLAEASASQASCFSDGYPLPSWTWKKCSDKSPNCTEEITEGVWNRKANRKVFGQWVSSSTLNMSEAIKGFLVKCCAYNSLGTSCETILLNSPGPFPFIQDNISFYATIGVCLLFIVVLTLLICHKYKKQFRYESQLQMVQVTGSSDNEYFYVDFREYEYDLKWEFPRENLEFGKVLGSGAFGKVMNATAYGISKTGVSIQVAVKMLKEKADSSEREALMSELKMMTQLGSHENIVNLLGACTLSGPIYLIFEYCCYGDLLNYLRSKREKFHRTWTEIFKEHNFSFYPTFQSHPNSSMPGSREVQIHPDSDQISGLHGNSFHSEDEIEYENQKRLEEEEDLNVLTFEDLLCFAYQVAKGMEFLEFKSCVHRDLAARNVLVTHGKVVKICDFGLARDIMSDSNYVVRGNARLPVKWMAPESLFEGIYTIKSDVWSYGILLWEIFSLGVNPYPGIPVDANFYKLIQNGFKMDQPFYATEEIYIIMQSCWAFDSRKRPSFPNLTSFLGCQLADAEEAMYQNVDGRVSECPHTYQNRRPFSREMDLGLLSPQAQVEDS

Row | SMILES | inhibition at 1 µM (FLT3wt) [%] | inhibition at 1 µM (CDK2/E) [%] | IC50 (SW-480 cells; Homo sapiens, SW480) [µM] | IC50 (HepG2 cells; Homo sapiens, HepG2, 72 h) [µM] | inhibition at 1 µM (Pim-1) [%] | inhibition at 1 µM (DYRK1) [%] | IC50 (MV4-11 cells; Homo sapiens, MV4-11, 72 h) [µM] | inhibition at 1 µM (Pim-3) [%] | inhibition at 1 µM (Pim-2) [%] | IC50 (HEL92 cells; Homo sapiens, 72 h) [µM] | other results
1 | CC(C)n1c(N2CC[C@H](N)C2)nc2c([N+](=O)[O-])c(Br)c(Br)cc21 [Example 1AZ] |  |  |  |  |  |  |  |  |  |  | Pim-2 % INH (1 μM) (Pim-2): 70%; IC50 (HEL92 cells; 72 hours): 2.6 µM; Flt3wt % INH (1 μM) (FLT3wt): 48%; CDK2/E % INH (1 μM) (CDK2/E): 38%; IC50 (HepG2 cells; 72 hours): 2.2 µM; Pim-1 % INH (1 μM) (Pim-1): >95%; DYRK1A % INH (1 μM) (DYRK1): 72%; IC50 (MV4-11 cells; 72 hours): 1.1 µM; TGI (tumor growth inhibition) (MV4-11 xenograft; [1]): 76%; ΔBW (body weight change) (MV4-11 xenograft; [1]): −0.2%; TGI (tumor growth inhibition) (MV4-11 xenograft; MV4-11 xenograft, oral, doses as in Table 3): more than 70%; Pim-3 % INH (1 μM) (Pim-3): 94%
2 | CCn1c(N2CCNC(C)(C)C2)nc2c([N+](=O)[O-])c(Br)c(Br)cc21 [Example 22W, 5,6-dibromo-2-(3,3-dimethylpiperazin-1-yl)-1-ethyl-4-nitro-1H-1,3-benzodiazole] | < 5 | < 5 | 4.9 | 1.5 | 80 |  | 1.7 | 57 |  | 9.5 | 
3 | Nc1ccn([C@@H]2O[C@H](CO)[C@@H](O)[C@@H]2O)c(=O)n1 [Cytarabine, cytarabine, reference compound] |  |  |  |  |  |  |  |  |  |  | TGI (tumor growth inhibition) (MV4-11 xenograft; [2]): 60%; ΔBW (body weight change) (MV4-11 xenograft; [2]): −2%
4 | CCn1c(NC2CCC(N)CC2)nc2c([N+](=O)[O-])c(Br)c(Br)cc21 (stereo not shown) [Example 1H] |  |  | 3.4 |  |  |  |  | 38 | 25 |  | IC50 (HEL92 cells; 72 hours): 7.6 µM; Flt3wt % INH (1 μM) (FLT3wt): <5%; CDK2/E % INH (1 μM) (CDK2/E): <5%; IC50 (HepG2 cells; 72 hours): 2.7 µM; Pim-1 % INH (1 μM) (Pim-1): 58%; DYRK1A % INH (1 μM) (DYRK1): 9%; IC50 (MV4-11 cells; 72 hours): 2.3 µM
5 | CCn1c(N2CCCN(C)CC2)nc2c([N+](=O)[O-])c(Br)c(Br)cc21 [Example 22M, 5,6-dibromo-1-ethyl-2-(4-methyl-1,4-diazepan-1-yl)-4-nitro-1H-1,3-benzodiazole] | < 5 | < 5 | 4.7 | 5 | 74 |  | 3.7 | 29 | 18 | 6.5 | 
6 | CCn1c(N2CCCC(N)C2)nc2c([N+](=O)[O-])c(Br)c(Br)cc21.Cl (stereo not shown) [Example 1F] |  |  |  |  |  |  |  |  |  |  | Pim-2 % INH (1 μM) (Pim-2): 36%; IC50 (HEL92 cells; 72 hours): 5.0 µM; Flt3wt % INH (1 μM) (FLT3wt): 6%; CDK2/E % INH (1 μM) (CDK2/E): <5%; IC50 (SW-480 cells): 3.3 µM; IC50 (HepG2 cells; 72 hours): 3.3 µM; Pim-1 % INH (1 μM) (Pim-1): 90%; DYRK1A % INH (1 μM) (DYRK1): 20%; IC50 (MV4-11 cells; 72 hours): 2.3 µM; Pim-3 % INH (1 μM) (Pim-3): 83%

Further compounds by falling IC50 (SW-480 cells; Homo sapiens, SW480), results first:

Row | inhibition at 1 µM (FLT3wt) [%] | inhibition at 1 µM (CDK2/E) [%] | IC50 (SW-480 cells; Homo sapiens, SW480) [µM] | IC50 (HepG2 cells; Homo sapiens, HepG2, 72 h) [µM] | inhibition at 1 µM (Pim-1) [%] | inhibition at 1 µM (DYRK1) [%] | IC50 (MV4-11 cells; Homo sapiens, MV4-11, 72 h) [µM] | inhibition at 1 µM (Pim-3) [%] | inhibition at 1 µM (Pim-2) [%] | SMILES | IC50 (HEL92 cells; Homo sapiens, 72 h) [µM] | other results
7 | < 5 | < 5 | 7.4 | 4.1 | 85 |  | 3.1 | 70 | 28 | CCn1c(NCCCN)nc2c([N+](=O)[O-])c(Br)c(Br)cc21 [Example 1C] | > 10 | 
8 | < 5 | < 5 | 5.5 | 1.4 | 53 | 61 | 3.1 |  |  | C#CCn1c(N2CCNCC2)nc2c([N+](=O)[O-])c(Br)c(Br)cc21 [Example 2B, 5,6-dibromo-4-nitro-2-(piperazin-1-yl)-1-(prop-2-yn-1-yl)-1H-1,3-benzodiazole hydrochloride] | 6.7 | 
9 | < 5 | < 5 | 5 | 2.3 | 74 | 39 | 0.7 | 56 |  | CCn1c(N2CCNC(C)C2)nc2c([N+](=O)[O-])c(Br)c(Br)cc21 (stereo not shown) [Example 22X, 5,6-dibromo-1-ethyl-2-(3-methylpiperazin-1-yl)-4-nitro-1H-1,3-benzodiazole] | 8.7 | 
10 | 21 | 32 | 3.3 | 1.6 | > 95 | 47 | 1.2 | > 95 | 58 | CC(C)n1c(NCCCN)nc2c([N+](=O)[O-])c(Br)c(Br)cc21 [Example 1L] | 5.7 | 
11 | 10 | < 5 | 3.1 | 1.3 | 71 | 25 | 2.3 | 34 |  | C#CCn1c(NCCCN)nc2c([N+](=O)[O-])c(Br)c(Br)cc21 [Example 2G, N-(3-aminopropyl)-5,6-dibromo-4-nitro-1-(prop-2-yn-1-yl)-1H-1,3-benzodiazol-2-amine hydrochloride] | 6 | 
12 |  |  | 2.5 | 2.7 |  |  | 2.9 |  |  | CCn1c(NCCCN2CCCC2)nc2c([N+](=O)[O-])c(Br)c(Br)cc21 [Example 22P, 5,6-dibromo-1-ethyl-4-nitro-N-[3-(pyrrolidin-1-yl)propyl]-1H-1,3-benzodiazol-2-amine] | 5.9 | 
